Data from BigSolDB 2.1.

CO[C@H]1/C=C/O[C@@]2(C)Oc3c(C)c(O)c4c(O)c(c(/C=N/N5CCN(C6CCCC6)CC5)c(O)c4c3C2=O)NC(=O)/C(C)=C\C=C\[C@H](C)[C@H](O)[C@@H](C)[C@@H](O)[C@@H](C)[C@H](OC(C)=O)[C@@H]1C
solubility (mole fraction)
Settings | 278.15 K | 283.15 K | 288.15 K | 293.15 K | 297.15 K | 303.15 K | 308.15 K | 313.15 K | 318.15 K | 323.15 K
in acetone | 0.000523 | 0.00053 | 0.000536 | 0.000549 | 0.000563 | 0.000576 | 0.000609 | 0.000635 | 0.000668 | 0.000701
in chloroform | 0.0254 | 0.0265 | 0.0281 | 0.0287 | 0.0293 | 0.0299 | 0.0308 | 0.0316 | 0.0326 | 0.0334
in dichloromethane | 0.0159 | 0.0165 | 0.0175 | 0.0184 | 0.0196 | 0.0209 | 0.0224 | – | – | –
in ethanol | 0.000515 | 0.000525 | 0.000541 | 0.000562 | 0.000583 | 0.000604 | 0.000625 | 0.000651 | 0.000677 | 0.000703
in methanol | 0.022 | 0.0224 | 0.0229 | 0.0235 | 0.0242 | 0.0249 | 0.0257 | 0.0267 | 0.0278 | 0.029
